BigSolDB 2.1

O=C(O)CNC(=O)OCc1ccccc1
solubility (mole fraction)
Conditions | 283.15 K | 288.15 K | 293.15 K | 298.15 K | 303.15 K | 308.15 K | 313.15 K | 318.15 K | 323.15 K
in 2-butanone | 0.0371 | 0.0437 | 0.0508 | 0.0592 | 0.0692 | 0.082 | 0.0966 | 0.114 | 0.134
in acetone | 0.0617 | 0.0709 | 0.0815 | 0.0942 | 0.108 | 0.123 | 0.14 | 0.169 | 0.197
in acetonitrile | 0.0106 | 0.0132 | 0.0159 | 0.0198 | 0.0251 | 0.032 | 0.0408 | 0.052 | 0.067
in ethanol | 0.0415 | 0.0499 | 0.0611 | 0.0767 | 0.0955 | 0.11 | 0.131 | 0.157 | 0.186
in ethyl acetate | 0.0185 | 0.0222 | 0.026 | 0.0308 | 0.0369 | 0.0442 | 0.053 | 0.0642 | 0.0783
in isobutanol | 0.0149 | 0.0188 | 0.0237 | 0.0315 | 0.0394 | 0.0523 | 0.0665 | 0.0853 | 0.109
in isopropanol | 0.0261 | 0.0338 | 0.0449 | 0.0566 | 0.0707 | 0.0864 | 0.108 | 0.133 | 0.16
in methanol | 0.0654 | 0.0769 | 0.0933 | 0.109 | 0.123 | 0.143 | 0.164 | 0.19 | 0.219
in methyl acetate | 0.0261 | 0.0309 | 0.0366 | 0.0436 | 0.053 | 0.0627 | 0.0737 | 0.0902 | 0.105
in n-butanol | 0.0205 | 0.0257 | 0.032 | 0.04 | 0.0504 | 0.0627 | 0.0786 | 0.0982 | 0.122
in n-pentanol | 0.018 | 0.0221 | 0.0275 | 0.0349 | 0.0429 | 0.0578 | 0.0727 | 0.0886 | 0.111
in n-propanol | 0.0261 | 0.0327 | 0.0399 | 0.0504 | 0.0636 | 0.0794 | 0.0986 | 0.122 | 0.149
